Test results from article PMC7370299, “Inhibition of Ovarian Cancer Cell Spheroid Formation by Synthetic Peptides Derived from Nectin-4” (International Journal of Molecular Sciences, 2020).

How the values were obtained:
NIH:OVCAR5 cells [1] = conditions: 150 µg/mL peptide N4-P10 or 2 µg/mL puromycin, 250 nM Cytotox Green, 72 h, quadruplicate
Method: As a positive control for cytotoxicity, 2 µg/mL puromycin was used.

NIH:OVCAR5 cells [2] = test: Real-time spheroid formation, round-bottom ultra-low attachment plates, IncuCyte Zoom time-lapse, CellProfiler area; type: cell-based, human; conditions: for effect on spheroid formation (spheroid size, time-lapse): 96-well round-bottom ultra-low attachment plates, IncuCyte Zoom, first 24 h, DMSO control; for inhibition of spheroid formation at 18 µg/mL: peptide 18 µg/mL; for spheroid contraction / compact spheroid formation, average spheroid area over time: quadruplicate; for cell-cell adhesion at early time points of spheroid formation: before ~6 h, time-lapse imaging
Method: (§1) Confluent monolayers of ovarian cancer cell lines (NIH:OVCAR5, N4-KD-VB9, or CAOV3) were detached from the tissue culture flasks using 0.05% Trypsin (ThermoFisher Scientific, Waltham, MA, USA) and resuspended at a concentration of 1.0 × 10^5 cells/mL in complete media. Each well of a 96-well round-bottom ultra-low attachment plate (Corning, Corning NY, USA) was seeded with 50 ul of the resulting suspension. In most cases, the experiments were conducted with eight technical replicates at each condition. The plates were then placed in the gantry of the IncuCyte® Zoom (Sartorius, Ann Arbor, MI, USA) live cell analysis system and incubated at 37 °C in 5% CO2 for 24–72 h, as indicated. Photographs were taken at ~15 min increments for a total of no less than 48 h for the NIH:OVCAR5 cell lines or up to 72 h for the CAOV3 cell line. The initial photographs (t = 0) were taken 10–25 min after the cells were plated, at which time the cells had gravitated to the bottom of the well and were initiating the cell–cell attachments. The resulting footage was analyzed to determine the change in the area of the spheroid aggregates over time. The images were binarized to black and white, and the sum of the area of the small aggregates (black objects) in pixels was determined via the CellProfiler^TM workflow described below. Each image was normalized to the same dimensions, so that the areas could be compared.
Experiments were then repeated using round-bottom ultra-low attachment plates in which the cells were added to the wells containing the peptides at a final concentration of 150 µg/mL. The plates were placed in the IncuCyte® Zoom instrument for 24-48 h of live cell imaging, as described above. Experiments with the peptides selected for further study were performed in triplicate, with 8–16 technical replicates at each treatment condition.
NIH:OVCAR5 cells were added to wells containing from 9 to 150 µg/mL of peptide N4-P10 or peptide N4-P10S, or DMSO control, and then the formation of spheroids was monitored via the IncuCyte® Zoom instrument. The resulting footage was analyzed with the CellProfiler^TM pipeline described below.
A simple four-step CellProfiler™ (open source, Broad Institute, www.cellprofiler.org) pipeline was used to delineate the biologically relevant image contents and to quantify the area of spheroids over time. As part of the CellProfiler™ workflow, cellular edges were enhanced using the Sobel method, the images were converted to binary via Otsu method thresholding, and the area of occupied pixels as a function of overall image size was recorded. The resulting values were exported for analysis and visualization in the R statistical programming language. The values were averaged and the mean with the standard error of the mean (SEM) was determined and graphed. Experiments were routinely performed with eight replicates for each condition, and repeated a minimum of two times on separate days. Since many photographs were taken during the course of each experiment (approximately every 15 min) and the SEM was very small, it is difficult to see the small error bars in the graphs. For this reason, the values for each experimental SEM were included in the figure legends.

NIH:OVCAR5 cells [3] = test: Initial screening of Nectin-4 peptides for spheroid formation, flat-bottom ultra-low attachment plates, manual photographs; type: cell-based, human; conditions: peptide 150 µg/mL, 96-well flat-bottom ultra-low attachment plates, photographed at 24 and 48 h, 8 technical replicates, data not shown
Method: Twenty-one peptides of 14 amino acids in length encompassing the extracellular domain of Nectin-4 (Figure 2 and Table 1) were synthesized as previously described. The peptides were initially screened at a concentration of 150 µg/mL in 96-well flat-bottom ultra-low attachment plates to identify the section(s) of Nectin-4 that are active in ovarian cancer cell aggregation and spheroid formation. NIH:OVCAR5 cells and peptides were seeded into the plates and manually photographed at 24 and 48 h time points. […] However, the cells treated with the other 18 peptides produced spheroids that appeared to be similar in size to the untreated control cells.
For the initial screening of the twenty-one Nectin-4 peptides, 50 ul of the peptides at 300 µg/mL (for a final working concentration of 150 µg/mL peptide per well) in complete media were added to 96-well flat-bottom ultra-low attachment plates (Corning, Corning, NY, USA). DMSO was used as a negative control. Fifty microliters of NIH:OVCAR5 cells at a concentration of 1.0 × 10^5 cells/mL in complete media were added to each well. The plates were then incubated at 37 °C in 5% CO2 for 48 h, with photographs taken manually at 24 and 48 h on a Nikon® TE200 microscope. A single screening experiment was conducted with 8 technical replicates at each condition to determine which peptides had the most significant effect on spheroid formation.

CAOV3 cells = test: Real-time spheroid formation, round-bottom ultra-low attachment plates, IncuCyte Zoom time-lapse, CellProfiler area; type: cell-based, human; conditions: peptide 150 µg/mL; for effect on spheroid formation of CAOV3 cells: round-bottom ultra-low attachment plates, 72 h, quadruplicate, DMSO control
Method: as §1
A simple four-step CellProfiler™ (open source, Broad Institute, www.cellprofiler.org) pipeline was used to delineate the biologically relevant image contents and to quantify the area of spheroids over time. As part of the CellProfiler™ workflow, cellular edges were enhanced using the Sobel method, the images were converted to binary via Otsu method thresholding, and the area of occupied pixels as a function of overall image size was recorded. The resulting values were exported for analysis and visualization in the R statistical programming language. The values were averaged and the mean with the standard error of the mean (SEM) was determined and graphed. […]

recombinant Nectin-1 = conditions: ovarian cancer cell adhesion to recombinant Nectin-1, short-term binding assay, previous study ref 15; cited from earlier work
Text: In our previous study, peptides N4-P10 and N4-P22 both inhibited cell adhesion by approximately 50%; however, the inhibition of spheroid formation by these two peptides was more disparate, with peptide N4-P10 almost completely inhibiting spheroid formation. In contrast, ...

[4] = peptide 150 µg/mL, 24 h, versus DMSO control

| Compound | cytotoxic effect (cell death, integrated fluorescence intensity) (NIH:OVCAR5 cells [1]) | effect on spheroid formation (spheroid size, time-lapse) (NIH:OVCAR5 cells [2]; peptide 150 µg/mL) | effect on formation of spheroids (initial screen) (NIH:OVCAR5 cells [3]) | inhibition of spheroid formation at 18 µg/mL (NIH:OVCAR5 cells [2]; 24 h, versus DMSO control) | spheroid contraction / compact spheroid formation, average spheroid area over time (NIH:OVCAR5 cells [2]; [4]) | cell-cell adhesion at early time points of spheroid formation (NIH:OVCAR5 cells [2]; peptide 150 µg/mL) | effect on spheroid formation of CAOV3 cells (CAOV3 cells) | inhibition of cell adhesion to Nectin-1 (recombinant Nectin-1) | also measured |
| --- | --- | --- | --- | --- | --- | --- | --- | --- | --- |
| COc1ccc(C[C@H](N)C(=O)N[C@H]2[C@@H](O)[C@H](n3cnc4c(N(C)C)ncnc43)O[C@@H]2CO)cc1 [puromycin, reference compound] | essentially all died within 24 h | – | – | – | – | – | – | – | – |
| EVKGTTSSRSFKHS [N4-P14, Nectin-4 extracellular domain peptide, AA 186-199] | – | no effect on spheroid formation | – | – | – | – | – | – | – |
| QARLRLRVLVPPLP [N4-P10, Nectin-4 extracellular domain peptide, AA 138-151] | negligible | most dramatic effect on spheroid formation | significantly impeded the formation of spheroids | marginal effect of inhibiting spheroid formation | did not form compact spheroids | appeared to inhibit cell–cell adhesion | inhibited the spheroid formation of CAOV3 cells | approximately 50% | inhibition of spheroid formation at 37.5 to 150 µg/mL (NIH:OVCAR5 cells [2]; peptide 37.5 to 150 µg/mL, 24 h): almost complete inhibition of spheroid formation; size / packing of CAOV3 multicellular aggregates (CAOV3 cells; after 72 h of incubation, CellProfiler area): not as tightly packed as the spheroids that were formed in the presence of peptide N4-P10S or the DMSO control |
| RPVQLALPRLVRPL [N4-P10S, scrambled version of peptide N4-P10 used as a control peptide, reference compound] | – | – | – | no effect compared to the DMSO control | visually and quantitatively similar to that of the untreated controls | – | formed aggregates over 24 h that contracted into more compact spheroids after 72 h | – | change in formation of spheroids at any concentration (NIH:OVCAR5 cells [2]; peptide 9-150 µg/mL, 24 h, versus DMSO control): no quantifiable change in the formation of spheroids compared with the control |
| SGKQVDLVSASV [N4-P27, Nectin-4 peptide, AA 339-350, adjacent to membrane] | – | significant impact on the formation of spheroids | significantly impeded the formation of spheroids | – | – | – | – | did not inhibit ovarian cancer cell adhesion to recombinant Nectin-1 | inhibition of spheroid formation compared to the control (NIH:OVCAR5 cells [2]; peptide 150 µg/mL, spheroid area at 24 h): almost forty percent |
| WTRLDGPLPSGVRV [N4-P22, Nectin-4 extracellular domain peptide, AA 282-295] | – | more modest inhibition of spheroid formation | significantly impeded the formation of spheroids | – | – | appeared to inhibit cell–cell adhesion | – | approximately 50% | – |
